Here are results for 4 molecules from paper PMC12292791, “Insights into Membrane Damage by α-Helical and β-Sheet Peptides” (Biomolecules, 2025).

Data set [1] can be described thus: ANTS/DPX dye leakage assay with large unilamellar vesicles. Particulars: 500 µM lipid. The class given is biochemical. How it is done:
Large unilamellar vesicles were prepared using a modified procedure from Wimley. Individual solutions of 1-palmitoyl-2-oleoyl-glycero-3-phosphocholine (POPC) and 1-palmitoyl-2-oleoyl-sn-glycero-3-phospho-(1’-rac-glycerol) (sodium salt) (POPG) lipids (Avanti Research, Alabaster, AL, USA) in chloroform were mixed in a 7:3 mol/mol POPC–POPG ratio, and the chloroform was gently evaporated under a stream of nitrogen gas. The lipid film was then dried in vacuo overnight. After complete evaporation of the chloroform, the lipid film was resuspended in the vesicle preparation buffer to yield a 25 mM lipid solution. The vesicle preparation buffer consisted of 45 mM KCl, 10 mM Tris HCl, 8 mM 8-aminonaphthalene-1,3,6-trisulfonic acid disodium salt (ANTS) (Fisher Scientific Inc., Waltham, MA, USA), and 32 mM p-xylene-bis-pyridinium bromide (DPX) (Fisher Scientific, Inc.). The lipid film was allowed to dissolve in the vesicle preparation buffer for approximately 15 min. If any lipid film remained on the side of the tube, the solution was gently pipetted up and down to mix the film with the liposome suspension. Once the film was thoroughly dissolved, the lipid suspension was subjected to 10 freeze/thaw cycles using a dry ice/ethanol bath and a 60 °C water bath to facilitate encapsulation of the fluorophore and quencher pair (ANTS and DPX). […]
Lyophilized peptide was dissolved in the liposome elution buffer at a volume corresponding to half the total volume needed for the experiment. The liposome solution was diluted to 1 mM lipid from the concentration calculated using the phosphorus concentration method described above. […]
Fluorescence measurements were conducted on a Tecan Spark® 20M plate reader (Tecan, Männedorf, Zurich, Switzerland). […] The wells were excited at 355 nm with a bandwidth of 5 nm, and emission was monitored at a wavelength of 520 nm with a bandwidth of 10 nm. The gain and z-position were calculated using a well containing liposomes lysed with reduced Triton^TM X-100 (Sigma-Aldrich) to produce maximum fluorescence. […]
To ensure accurate comparison across batches of liposomes, the percentage leakage was calculated using the formula: PercentLeakage=F−F0/Flysed−F0×100 where F is the relative fluorescence (RF) at time t, F0 is the RF at t=0 , and Flysed is the RF after the addition of detergent. Since leakage occurred immediately upon mixing the liposome and peptide solutions, the initial fluorescence ( F0 ) was determined by adding the relative fluorescence of liposomes alone to the relative fluorescence of the peptide in the elution buffer at each relevant concentration. […] Leakage experiments were performed at least in triplicate, and error bars were calculated as the standard deviation about the mean. […]

Data set [2] can be described thus: Solubility in liquid elution buffer observed during CD measurements. The class given is physicochemical. Conditions: liposome elution buffer (75 mM KCl, 20 mM Tris HCl), lyophilized peptide dissolved, 25 °C CD samples. How it is done: Circular dichroism (CD) spectra were recorded using a Jasco-815 circular dichroism spectrometer with a 0.1 mm path-length quartz cuvette. Scans were performed at 25 °C in duplicate, covering the wavelength range of 190–260 nm. The scanning parameters included a 1.0 nm data pitch, 1.0 nm bandwidth, and a scanning speed of 100 nm/min.
Additionally, the spectra recorded in the presence of the LUVs differed from those recorded in buffer alone. […] At peptide concentrations higher than 500 µM, M03 began to lose solubility, while M04 began to precipitate from solution at concentrations higher than 200 µM. The reduced solubility of M04 was likely due to the orientation of all its hydrophobic residues on one face of the α -helix, making it more prone to aggregation in aqueous solutions. […] It is also important to note that the CD spectra of M03 and M04 were noticeably different from each other. This underscores the effect that varying the sequence pattern, even slightly, can have on the resulting peptide properties.

The conditions of data set [3]: immediately upon dissolution in aqueous solvent; cited from earlier work. From the text:
In the following section, we discuss the secondary structure and membrane damage properties of M03 and M04. […] This happened immediately upon dissolution in aqueous solvent; likely before it was able to interact with the membranes. Therefore, it was difficult to determine the effect of M01 peptides on membranes experimentally, as the leakage observed was likely due to mechanical disruption of the liposomes as the peptide monomers assembled ...

Peptide text beside a SMILES is read from it.

For the molecule `CC(=O)N[C@@H](Cc1ccccc1)C(=O)N[C@@H](Cc1ccccc1)C(=O)N[C@@H](CCCCN)C(=O)N[C@@H](CCCCN)C(=O)N[C@@H](Cc1ccccc1)C(=O)N[C@@H](Cc1ccccc1)C(=O)N[C@@H](CCC(=O)O)C(=O)N[C@@H](CCC(=O)O)C(=O)N[C@@H](Cc1ccccc1)C(=O)N[C@@H](CCCCN)C(=O)N[C@@H](CCCCN)C(=O)N[C@@H](Cc1ccccc1)C(=O)N[C@@H](Cc1ccccc1)C(=O)N[C@@H](CCC(=O)O)C(=O)N[C@@H](CCC(=O)O)C(=O)N[C@@H](Cc1ccccc1)C(N)=O` [Peptide M04, Ac-FFKKFFEEFKKFFEEF-NH2] (Ac-FFKKFFEEFKKFFEEF-NH2), in data set [1] (P:L 1:50 (lowest ratio), ANTS/DPX in 7:3 POPC–POPG LUVs, 75 mM KCl/20 mM Tris HCl, fluorescence, at least triplicate), the percentage of leakage result was “no leakage”. In addition, the “percentage of leakage (damage)” value in data set [1] (P:L 2:50, ANTS/DPX in 7:3 POPC–POPG LUVs, 75 mM KCl/20 mM Tris HCl, fluorescence, at least triplicate) is 21%. In addition, in data set [2], the “peptide concentration above which the peptide begins to lose solubility / precipitate” value was “higher than 200 µM”.

With `CC(=O)N[C@@H](Cc1ccccc1)C(=O)N[C@@H](Cc1ccccc1)C(=O)N[C@@H](CCCCN)C(=O)N[C@@H](CCCCN)C(=O)N[C@@H](Cc1ccccc1)C(=O)N[C@@H](Cc1ccccc1)C(=O)N[C@@H](CCC(=O)O)C(=O)N[C@@H](CCC(=O)O)C(=O)N[C@@H](Cc1ccccc1)C(=O)N[C@@H](Cc1ccccc1)C(=O)N[C@@H](CCCCN)C(=O)N[C@@H](CCCCN)C(=O)N[C@@H](Cc1ccccc1)C(=O)N[C@@H](Cc1ccccc1)C(=O)N[C@@H](CCC(=O)O)C(=O)N[C@@H](CCC(=O)O)C(N)=O` [Peptide M03, Ac-(FFKKFFEE)2-NH2] (Ac-FFKKFFEEFFKKFFEE-NH2), in data set [1] (all P:L ratios tested (1:50, 2:50, 1:10, 1:5, 2:5), ANTS/DPX in 7:3 POPC–POPG LUVs, 75 mM KCl/20 mM Tris HCl, room temperature, fluorescence ex 355/em 520 nm, at least triplicate), the percentage of leakage entry is reported as “greater than 80%”. Besides, in data set [2], the “peptide concentration above which the peptide begins to lose solubility / precipitate” value is “higher than 500 µM”.

Consider “Ac-FKFEFKFE-NH2 [Peptide M01, 8-residue amphipathic β-sheet forming peptide]”, for which the self-assembly / aggregation entry in data set [3] is listed as “self-assembled into supramolecular β -sheet rich fibers”.

`CC(=O)N[C@@H](Cc1ccccc1)C(=O)N[C@@H](Cc1ccccc1)C(=O)N[C@@H](CCCCN)C(=O)N[C@@H](CCCCN)C(=O)N[C@@H](Cc1ccccc1)C(=O)N[C@@H](Cc1ccccc1)C(=O)N[C@@H](CCC(=O)O)C(=O)N[C@@H](CCC(=O)O)C(N)=O` [Peptide M02, Ac-FFKKFFEE-NH2] (Ac-FFKKFFEE-NH2): the leakage entry in data set [1] (peptide 100 µM, 500 µM and 1 mM (P:L 1:5, 1:1, 2:1), 7:3 POPC–POPG LUVs, ANTS/DPX) is on record as “minimal leakage”.
